Assay results: article PMC12884720, “Gabpα‐Pparγ Complex Determines Glycolytic Capacity and Lactic Acid Homeostasis in Brown Fat” (Advanced Science, 2025)
No end group written: not given here. *: point of attachment. FITC = O=C1OC2(c3ccc(O)cc3Oc3cc(O)ccc32)c2ccc(NC(=S)*)cc21

B2: Gabpα protein (SPR analyte) (natural protein, UniProt Q00422 1-454, looked up)
chain: MTKREAEELIEIEIDGTEKAECTEESIVEQTYTPAECVSQAIDINEPIGNLKKLLEPRLQCSLDAHEICLQDIQLDPDRSLFDQGVKTDGTVQLSVQVISYQGMEPKLNILEIVKTAETVEVVIDPDAHHAEAEAHLVEEAQVITLDGTKHITTISDETSEQVTRWAAALEGYRKEQERLGIPYDPIHWSTDQVLHWVVWVMKEFSMTDIDLTTLNISGRELCSLNQEDFFQRVPRGEILWSHLELLRKYVLASQEQQMNEIVTIDQPVQIIPASVPPATPTTIKVINSSAKAAKVQRSPRISGEDRSSPGNRTGNNGQIQLWQFLLELLTDKDARDCISWVGDEGEFKLNQPELVAQKWGQRKNKPTMNYEKLSRALRYYYDGDMICKVQGKRFVYKFVCDLKTLIGYSAAELNRLVIECEQKKLARMQLHGIAQPVTAVALAATSLQADKEI
notes: May be the Cusabio GST-Gabpα of the pull-down

How the values were obtained:
BAT from wild‐type mice = assay: H&E staining and Ucp1 immunostaining of BAT; assay type: in vivo, wild‐type C57BL/6J mice; details: GPCBi 5.5 mg kg^−1 in BAT for 7 days, then sodium lactate 2 g kg^−1 d^−1 i.p. daily for 3 days following 10 °C for 2 days; Ucp1 immunostaining (Figure 5g-i)
Description: The mouse experiments were approved by the Institutional Animal Care and Use Committee of the Institute of Model Animals of Tongji Hospital, Huazhong University of Science and Technology, and were performed in compliance with all relevant ethical regulations (approval number: TJH‐202110044). Unless otherwise noted, the mice were housed in a pathogen‐free and climate‐controlled environment (22–25 °C, 40‐60% humidity) and were given free access to food and water on a 12 h light/dark cycle. Wild‐type C57BL/6J mice were obtained from Beijing Huafukang Bioscience Co., Ltd. (Beijing, China). Gabpa ^flox/flox , Adipoq^Cre , and Ucp1^Cre mice were purchased from Cyagen Biosciences, Inc. (Guangzhou, China). For GPCBi treatment, wild‐type mice were orthotopically injected GPCBi (FITC‐[…]; 5.5 mg kg^−1) or scramble peptide (FITC‐[…]; 5.5 mg kg^−1) into the BAT at room temperature for one week. […] For cold exposure, the mice were caged individually and exposed to a temperature of 10 or 4 °C. The mice were euthanized by CO2 inhalation. For studies with specific diets, five‐week‐old male Gabpα ^Adipo KI mice and their respective littermate control mice were fed a HFD (D12492, Research Diets; 60 kcal% fat, 20 kcal% carbohydrates, and 20 kcal% protein; Medicience Ltd., Jiangsu, China) at ambient temperature. The food was changed every week. Body weight was measured every week, and tissue weights were measured at the time of euthanasia.
For haematoxylin and eosin (H&E) staining, adipose tissues and the liver were fixed in 4% paraformaldehyde overnight at 4 °C and then dehydrated in 70% ethanol. The tissues were subsequently embedded in paraffin, sectioned at a thickness of 5 µm, and stained with H&E or immunostained with a Ucp1 antibody (Abcam, UK, Cat# ab234430, 1:500 dilution) following the standard protocol. For Oil Red O staining, frozen liver sections were stained with Oil Red O solution for 10 min and then counterstained with haematoxylin for 20 s. Images of the tissue samples were captured via an Olympus BX53 Orthomicroscope. […]

[1] = system: differentiated iBAT‐SVF cells; assay: Relative mRNA and protein levels in differentiated iBAT-SVF cells; assay type: cell-based, C57BL/6 mice; details: GPCBi 5 µM, first 2 days of differentiation, and Enoblock 10 µM for 24 h (Figure 5p)
Description: Interscapular BAT‐SVF cells were obtained from eight‐week‐old male C57BL/6 mice. […] The tissue homogenates were filtered through a 70 µm cell strainer and centrifuged at 1000 rpm for 5 min. The cell pellet was resuspended in DMEM supplemented with 10% FBS (Sigma–Aldrich) and 1% penicillin/streptomycin (P/S) at 37 °C with 5% CO2. The next day, BAT‐SVF cells were immortalized with the SV40 large T antigen according to a published protocol.^[ [32] ^] […] After 48 h, the induction medium was replaced with a maintenance cocktail (5 µg mL^−1 insulin, 1 nM triiodo‐L‐thyronine, and 1 µM rosiglitazone) until 6 to 8 days after the induction of differentiation.
Reverse transcription of cDNA was completed via the use of 1 µg of RNA with HiScript II Q RT SuperMix for real‐time quantitative PCR (qPCR) (Vazyme Biotech, Nanjing, China, Cat# R222) according to the provided protocols. qPCR was performed with a real‐time PCR system on a QuantStudio1 (Applied Biosystems) using Taq Pro Universal SYBR qPCR Master Mix (Vazyme Biotech., Nanjing, China, Cat# Q712‐02). Relative transcript levels were calculated via the comparative C T method; 36b4 was used as the internal control for cells, whereas Hprt was used as the internal control for tissues. The primer sequences are listed in Table S1 (Supporting Information). The mRNAs from the BAT of control and Gabpα ^Ucp1 KO mice were extracted and subjected to commercial RNA‐seq (BGI Genomics Co., Ltd.) for further DEG and KEGG pathway enrichment analysis. In detail, RNA quality was examined with Fragment (Agilent). High‐quality RNA (RIN > 8.0) was used to library construction. RNA‐seq was performed at BGI Genomics (China) using the Illumina NovaSeq 6000 platform. Clean reads were aligned to the mouse reference genome (GRCm39) using Bowtie2, and transcript quantification was performed with RSEM. […] The RNA‐seq data generated in this study have been deposited in the National Center for Biotechnology Information Sequence Read Archive database under accession code PRJNA1358056.
Cells and tissues were lysed in RIPA lysis buffer (Beyotime, Shanghai, China, Cat# P0013B) containing a protease inhibitor cocktail (MedChem Express, NJ, USA, Cat# HY‐K0010) according to the manufacturer's protocol. Equal amounts of protein were separated on SDS‒PAGE gels and transferred to PVDF membranes (Millipore). The PVDF membranes were blocked in 5% skim milk for 1 h at room temperature and then incubated with primary antibody overnight at 4 °C. The membranes were washed three times with TBST and then incubated with HRP‐conjugated secondary antibodies for 1 h at room temperature. After washing three times, the Western blots were imaged via an enhanced chemiluminescence system.

[2] = system: differentiated iBAT‐SVF cells; assay: Lactate levels in differentiated iBAT-SVF cells; assay type: cell-based, C57BL/6 mice; details: GPCBi 5 µM, first 2 days of differentiation, and Enoblock 10 µM for 24 h (Figure 5o)
Description: (§1) Interscapular BAT‐SVF cells were obtained from eight‐week‐old male C57BL/6 mice. Briefly, BAT was excised, washed in PBS, minced, and digested at 37 °C for 40 min in Hanks solution containing type II collagenase (Sigma, Cat# C‐6885) and 4% bovine serum albumin (BSA). The tissue homogenates were filtered through a 70 µm cell strainer and centrifuged at 1000 rpm for 5 min. The cell pellet was resuspended in DMEM supplemented with 10% FBS (Sigma–Aldrich) and 1% penicillin/streptomycin (P/S) at 37 °C with 5% CO2. The next day, BAT‐SVF cells were immortalized with the SV40 large T antigen according to a published protocol.^[ [32] ^] For iBAT‐SVF cell differentiation, confluent SVF cells were induced to differentiate with medium containing 0.5 mM isobutylmethylxanthine (Sigma, Cat# I‐5879), 125 µM indomethacin (Sigma, Cat# I‐7378), 2 µg mL^−1 dexamethasone (Sigma, Cat# D‐1756), 5 µg mL^−1 insulin (Solarbio, Cat# I‐8040), 1 nM triiodo‐L‐thyronine (Sigma, Cat# T‐2877), and 1 µM rosiglitazone (Cayman, Cat# 71740‐100). After 48 h, the induction medium was replaced with a maintenance cocktail (5 µg mL^−1 insulin, 1 nM triiodo‐L‐thyronine, and 1 µM rosiglitazone) until 6 to 8 days after the induction of differentiation.
Brown fat was homogenized with lysis buffer, ultrasonographically treated on ice at 300 W (on for 3 s, off for 7 s) for 2 min, and then centrifuged at 4 °C at 12 000 × g for 10 min. […] All protocols were followed in accordance with the manufacturer's guidelines.

Eno1 promoter = assay: Luciferase reporter assay, Eno1-Luc activated by Gabpα and Pparγ/Rxrα; assay type: cell-based, human; details: HEK293T cells, T0070907 10 µM, n = 3 (Figure 3o)
Description: HEK293T cells were transfected with 100 ng of Pparγ and 100 ng of Rxrα or empty vector together with 100 ng of Gabpα plasmid or the C‐terminal truncation mutants and 200 ng of Eno1 luciferase reporter plasmid in 24‐well plates via Lipofectamine reagent (Yeasen, Shanghai, China, Cat# 40802ES03). For the experiments with the peptides GPCBi or T0070907, the additional peptides GPCBi (3 µM) or T0070907 (10 µM) were added to the HEK293T cells one day after the plasmid complex was transfected. After 48 h of transfection, luciferase activity was measured via the Dual‐Luciferase Reporter Assay System (Vazyme Biotech., Nanjing, China; Cat# DL101‐01). Firefly luciferase reporter gene measurements were normalized to Renilla luciferase activity.

iBAT‐SVF cells = assay: Immunofluorescence, nuclear localization of FITC-GPCBi in iBAT-SVF cells; assay type: cell-based, C57BL/6 mice; details: FITC‐GPCBi 5 µM, first 2 days of adipogenic differentiation; DAPI (Figure 4d)
Description: as §1, with “After 48 h, the induction medium was replaced with a maintenance cocktail (5 µg mL^−1 insulin, 1 nM triiodo‐L‐thyronine, and 1 µM rosiglitazone) until 6 to 8 days after the induction of differentiation.” left out
Differentiated iBAT‐SVF cells were fixed with 4% paraformaldehyde for 20 min at room temperature and then rinsed three times with PBS. […] The cells were subsequently washed three times with PBS and incubated with a fluorescence‐conjugated secondary antibody (ABclonal, Wuhan, China, Cat# AS053; AS008, 1:200 dilution) for 1 h at room temperature. […]

[3] = target: B2; assay: not stated; direct binding of GPCBi to Gabpα, dose-dependent (Figure S4d); method and who was immobilised not told; details: both partners purified
[4] = target: T1, Pparγ protein (SPR ligand) (UniProt P37238 1-505); assay: SPR; Biacore T200, CM5 chip; Pparγ immobilised covalently; different concentrations of Gabpα injected; 120 s association, 200 s dissociation; details: both partners purified
T1 construct: May be the Cusabio His-Pparγ of the pull-down
T1 sequence (looked up): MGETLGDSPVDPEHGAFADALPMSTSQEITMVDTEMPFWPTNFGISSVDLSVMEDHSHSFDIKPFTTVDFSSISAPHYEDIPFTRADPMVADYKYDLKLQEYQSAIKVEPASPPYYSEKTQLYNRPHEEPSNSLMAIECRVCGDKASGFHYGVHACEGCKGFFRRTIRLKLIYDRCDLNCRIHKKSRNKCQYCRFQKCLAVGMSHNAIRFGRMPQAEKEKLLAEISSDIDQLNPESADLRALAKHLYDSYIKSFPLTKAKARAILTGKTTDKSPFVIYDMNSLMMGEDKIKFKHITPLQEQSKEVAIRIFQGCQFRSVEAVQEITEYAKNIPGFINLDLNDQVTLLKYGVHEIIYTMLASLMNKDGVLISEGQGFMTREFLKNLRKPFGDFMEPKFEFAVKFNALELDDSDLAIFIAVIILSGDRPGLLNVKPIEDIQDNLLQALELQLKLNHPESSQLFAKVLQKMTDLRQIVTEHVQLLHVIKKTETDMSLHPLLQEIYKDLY

## CC(O)C(=O)[O-].[Na+] (stereo not shown) [lactate, sodium lactate, reference compound]
BAT from wild‐type mice
  Ucp1 expression suppressed by GPCBi (rescue): rescued

## NCCOCCOCCNC(=O)Cc1ccc(Nc2nc(NCc3ccc(F)cc3)nc(NCC3CCCCC3)n2)cc1 [Enoblock, reference compound]
[1]
  ucp1 expression when Enoblock further added to GPCBi-treated brown adipocytes: no change
[2]
  GPCBi-induced reduction of lactate level in presence of Enoblock: not observed

## O=C(Nc1ccncc1)c1cc([N+](=O)[O-])ccc1Cl [T0070907, reference compound]
Eno1 promoter
  Eno1 promoter activity induced by Gabpα: inhibited

## FITC‐tagged GPCBi: FITC‐tagged GPCBi ({FITC}-YGRKKRRQRRRRRTIRLKLIYDRCDLNCRIHKKSRNK; cysteine pairing not given here)
iBAT‐SVF cells
  cellular localization: nuclear localization

B1: Gabpα-Pparγ complex binding inhibitor (GPCBi) (peptide)
peptide: {FITC}-YGRKKRRQRRRRRTIRLKLIYDRCDLNCRIHKKSRNK
modifications: cysteine pairing not given here
notes: the numbers fit the 505-residue Pparγ2; also called FITC-GPCBi; peptide GPCBi; source: synthetic peptide
[3]
  Kd: 7.03 nM

## B2
[4]
  Kd: 5.34 nM
